Results on 8 molecules are retold here after patent US10414797B2, “Gelatinase inhibitors and use thereof” (Iproteos S.L, priority 2015, dated 2019).

Holding throughout (format): biochemical
One experiment concerns the target MMP-1 (Homo sapiens (Human), UniProt P03956). Description: MMP-1 inhibition assay (fluorogenic peptide substrate). The conditions noted are these: recombinant MMP-1 5.52 nM, Mca-PLGL-Dpa-AR-NH2 10 μM, 4 hours at room temperature; tested at 1, 10, 100 and 200 μM. The procedure:
(§1) All the experiments were done in 1× reaction buffer, which was obtained from a 10× reaction buffer solution. The content of the 10× reaction buffer was: 50 mL of 0.5 M Tris-HCl, 1.5 M NaCl, 50 mM CaCl2 and 2 mM sodium azide at pH 7.6. To obtain the 1× reaction buffer 4 mL of the 10× reaction buffer were diluted in 36 mL of H2O.
Recombinant MMP-1 expressed in E. Coli was obtained from Enzo Life Sciences (catalog number BML-SE180). Mca-PLGL-Dpa-AR-NH2 (fluorogenic peptide substrate) was obtained from R&D Systems (catalog number ES001).
Preparation of the MMP-1 for the activity assay: MMP-1 was provided as a stock solution (0.55 mg/mL). The enzyme was diluted in 1× reaction buffer to a final concentration of 276 nM.
MMP-1 peptide substrate was provided as a stock solution in DMSO (6 mM). For the assay, the substrate was diluted 1× reaction buffer to a concentration of 100 μM.
Procedure: The enzymatic assays were performed in 96-well microtiter plate, which allowed simultaneous monitoring of multiple reactions. For each reaction, 86 μL of 1× reaction buffer (pH 7.6), 2 μL of MMP-1 (final concentration 5.52 nM) and 2 μL of the corresponding new compound were added to each well. A stock solution of the new compound was prepared in DMSO (100 mM), and dilutions were prepared from this stock solution with DMSO. Finally, to the mixture contained in each well 10 μL of the substrate were added (final concentration 10 μM). The reaction was incubated for 4 hours at room temperature in an orbital shaker (100 rpm).
(§2) The inhibitory activity of the new compound was measured fluorimetrically. The excitation and emission wavelengths were 320 and 405 nm, respectively.
(§3) Inhibitory activity at several concentration points (1, 10, 100 and 200 μM) were measured for each compound. The inhibitory activity on MMP-1, MMP-3 and MMP-7 was calculated according to eq 1 and The IC50 value was calculated as explained above for MMP-2 and MMP-9.

The next experiment has as its target MMP-7 (Homo sapiens (Human), UniProt P09237). The experiment is described as follows: MMP-7 inhibition assay (fluorogenic peptide substrate). The conditions noted are these: recombinant MMP-7 8.3 nM, Mca-PLGL-Dpa-AR-NH2 10 μM, 4 hours at room temperature; tested at 1, 10, 100 and 200 μM. The procedure:
as §1
Recombinant MMP-7 expressed in E. Coli was obtained from Merck-Millipore (catalog number 44270). Mca-PLGL-Dpa-AR-NH2 (fluorogenic peptide substrate) was obtained from R&D Systems (catalog number ES001).
Preparation of the MMP-7 for the activity assay: MMP-7 was provided as a stock solution (2.1 mg/mL). The enzyme was diluted in water to a final concentration of 0.005 mg/mL.
MMP-7 peptide substrate was provided as a solid (1 mg). A 4 mM stock solution of the substrate in DMSO was obtained by adding 214.7 μL of DMSO. After which, a 100 μM solution of substrate was prepared in 1× reaction buffer.
(§4) Procedure: The enzymatic assays were performed in 96-well microtiter plate, which allowed simultaneous monitoring of multiple reactions. For each reaction, 84.6 μL of 1× reaction buffer (pH 7.6), 3.4 μL of MMP-7 (final concentration 8.3 nM) and 2 μL of the corresponding new compound were added to each well. A stock solution of new compound was prepared in DMSO (100 mM), and dilutions were prepared from this stock solution with DMSO. Finally, to the mixture contained in each well 10 μL of the substrate were added (final concentration 10 μM). The reaction was incubated for 4 hours at room temperature in an orbital shaker (90 rpm).
as §2, §3

The target in another experiment is MMP-9 (Homo sapiens, UniProt P14780). Description: MMP-9 inhibition assay (fluorimetric, DQ gelatin substrate). The conditions noted are these: recombinant MMP-9 (Merck-Millipore for examples 1 to 9 and comparative examples; Enzo for examples 10 to 16), DQ gelatin 50 μg/mL, 4 hours at room temperature, pH 7.6. The protocol:
as §1
Recombinant MMP-9 expressed was obtained from Merck-Millipore (catalog number PF140-5UG, used in examples 1 to 9 and comparative examples) and Enzo (catalog number-SE360-0010, used in examples 10 to 16). DQ gelatin from pig skin fluorescein conjugated (MMP-9 substrate) was obtained from Life Technologies (catalog number E12055).
Preparation of the MMP-9 for the activity assay: MMP-9 was provided as a stock solution (0.1 mg/mL). The enzyme was diluted in 1× reaction buffer to a final concentration of 5 μg/mL.
Preparation of the DQ gelatin (substrate) solution for the activity assay: the solid form of the substrate was dissolved in water in order to obtain a stock solution of 1 mg/mL.
as §4, with “MMP-9” for “MMP-7”, “85 ng/mL)” for “8.3 nM)”, “50 μg/mL).” for “10 μM).”, “(100” for “(90”
The inhibitory activity of the new compound was measured fluorimetrically. The excitation and emission wavelengths were 483 and 525 nm, respectively.
Inhibitory activity at several concentration points (ranging from 100 pM to 200 μM MMP) were measured for each compound. The inhibitory activity on MMP-2 and MMP-9 was calculated according to eq 1. For each new compound, the fluorescence in the presence (a) and in the absence (b) of the corresponding MMP was measured. The maximum fluorescence (0% inhibitory activity) was obtained from a sample of the corresponding MMP in the absence of inhibitory compounds. To estimate the inhibitory potency of the novel compounds, activities were plotted against the log concentration of the compound, adjusting to a sigmoid curve using GraphPad Prism software, and the IC50 value, defined as the concentration of compound required to inhibit 50% of the corresponding MMP activity, was determined from resulting curve.
a corresponds to fluorescence intensity in the presence of substrate+test compound+MMP
b corresponds to the fluorescence intensity in the presence of substrate+tested compound
c corresponds to the fluorescence intensity in the presence of substrate+MMP
d corresponds to the fluorescence intensity of the presence of substrate

Where a SMILES comes first, the peptide text is derived from it. [ ]: non-standard residue; d: D form. The star is where a group is joined. ξ: configuration not given here. Pro(trans-4-F) = O=C(O)[C@@H]1C[C@@H](F)CN1; Benzoyl(3,5-F2) = O=C(c1cc(F)cc(F)c1)*; NMeIle(3ξ) = CCC(C)[C@H](NC)C(=O)O; NMeF = CN[C@@H](Cc1ccccc1)C(=O)O; NMeA = CN[C@@H](C)C(=O)O; Dab = NCC[C@H](N)C(=O)O; Hexanoyl = CCCCCC(=O)*; Bz = O=C(c1ccccc1)*; NHOH = ON* A value given as a limit tells only on which side of the number the result lay.

Sequence of MMP-1 (P03956 100-269): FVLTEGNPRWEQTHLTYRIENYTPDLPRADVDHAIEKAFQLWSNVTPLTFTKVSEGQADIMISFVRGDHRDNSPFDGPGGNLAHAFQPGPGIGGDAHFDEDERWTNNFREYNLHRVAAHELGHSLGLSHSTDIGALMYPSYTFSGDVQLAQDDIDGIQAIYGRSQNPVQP
Sequence of MMP-9 (P14780 107-707 limits assumed): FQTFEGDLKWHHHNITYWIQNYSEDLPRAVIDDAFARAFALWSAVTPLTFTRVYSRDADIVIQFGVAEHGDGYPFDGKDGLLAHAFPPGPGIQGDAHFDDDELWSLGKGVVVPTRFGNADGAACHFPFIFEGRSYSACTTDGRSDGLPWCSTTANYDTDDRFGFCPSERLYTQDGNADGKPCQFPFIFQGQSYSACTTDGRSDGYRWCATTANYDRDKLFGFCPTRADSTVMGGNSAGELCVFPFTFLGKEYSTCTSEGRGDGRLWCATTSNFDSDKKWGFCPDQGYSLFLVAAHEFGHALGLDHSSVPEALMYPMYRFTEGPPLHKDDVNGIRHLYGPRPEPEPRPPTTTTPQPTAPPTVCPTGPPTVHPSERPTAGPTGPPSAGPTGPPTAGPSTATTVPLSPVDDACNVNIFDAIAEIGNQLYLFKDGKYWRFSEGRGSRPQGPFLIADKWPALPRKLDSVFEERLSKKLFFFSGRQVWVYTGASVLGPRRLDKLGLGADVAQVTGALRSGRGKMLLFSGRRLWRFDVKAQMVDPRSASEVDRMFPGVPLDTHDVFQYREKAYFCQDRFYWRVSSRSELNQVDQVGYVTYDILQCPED
Sequence of MMP-7 (P09237 95-267): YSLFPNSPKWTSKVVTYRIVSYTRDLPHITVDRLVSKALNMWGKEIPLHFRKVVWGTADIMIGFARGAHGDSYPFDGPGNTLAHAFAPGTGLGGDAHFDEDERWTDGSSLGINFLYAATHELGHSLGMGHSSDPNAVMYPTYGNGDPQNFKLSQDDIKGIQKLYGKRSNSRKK

Usually IC50 stands for the concentration at which inhibition is half-maximal. Regarding `CCCC(=O)N1CCC[C@H]1C(=O)N(C)[C@H](C(=O)N[C@@H](CCNC(=O)c1cc(F)cc(F)c1)C(=O)NO)C(C)CC` (stereo partly drawn) [Example 4, (2S)-1-butanoyl-N-[(1S)-1-[[(1S)-3-[(3,5-difluorobenzoyl)amino]-1-(hydroxycarbamoyl)propyl]carbamoyl]-2-methyl-butyl]-N-methyl-pyrrolidine-2-carboxamide], the IC50 amounted to 4.73 µM at MMP-1, 4.42 µM at MMP-7 and 0.235 µM on MMP-9.

As to `CCC(C)[C@@H](C(=O)N[C@@H](CCNC(=O)c1cc(F)cc(F)c1)C(=O)NO)N(C)C(=O)[C@@H]1CCCN1C(=O)[C@H](C)N(C)C(C)=O` (stereo partly drawn) [Example 12, (2 S)-1-[(2S)-2-[acetyl(methyl)amino]propanoyl]-N-[(1S)-1-[[(1S)-3-[(3,5-difluorobenzoyl)amino]-1-(hydroxycarbamoyl)propyl]carbamoyl]-2-methyl-butyl]-N-methyl-pyrrolidine-2-carboxamide] (Ac-[NMeA]P[NMeIle(3ξ)][Dab](Benzoyl(3,5-F2))-{NHOH}), the results for the IC50 at MMP-1, on MMP-7 and at MMP-9 were 14.9 µM, 14.1 µM and 0.136 µM, respectively.

With `CCCCCC(=O)N1CC(F)(F)C[C@H]1C(=O)N(C)[C@H](C(=O)N[C@@H](CCNC(=O)c1cc(F)cc(F)c1)C(=O)NO)C(C)CC` (stereo partly drawn) [Example 7, (2S)—N-[(1S)-1-[[(1S)-3-[(3,5-difluorobenzoyl)amino]-1-(hydroxycarbamoyl)propyl]carbamoyl]-2-methyl-butyl]-4,4-difluoro-1-hexanoyl-N-methyl-pyrrolidine-2-carboxamide], the IC50 amounted to 24.7 µM on MMP-1, 7.71 µM on MMP-7 and 0.713 µM on MMP-9.

Regarding `CCCCCC(=O)N1CCC[C@H]1C(=O)N(C)[C@H](C(=O)N[C@@H](CCNC(=O)c1ccccc1)C(=O)NO)C(C)CC` (stereo partly drawn) [Example 15, (2S)—N-[(1S)-1-[[(1S)-3-benzamido-1-(hydroxycarbamoyl)propyl]carbamoyl]-2-methyl-butyl]-N-methyl-1-hexanoyl-pyrrolidine-2-carboxamide] (Hexanoyl-Pro-[NMeIle(3ξ)]-[Dab](Bz)-{NHOH}), the IC50 on MMP-1 stood at 10.8 µM; at MMP-7 it was 41.2 µM; at MMP-9, 0.702 µM.

`CCCCCCCC(=O)N1CCC[C@H]1C(=O)N(C)[C@H](C(=O)N[C@@H](CCNC(=O)c1cc(F)cc(F)c1)C(=O)NO)C(C)CC` (stereo partly drawn) [Example 6, (2S)—N-[(1S)-1-[[(1S)-3-[(3,5-difluorobenzoyl)amino]-1-(hydroxycarbamoyl)propyl]carbamoyl]-2-methyl-butyl]-N-methyl-1-octanoyl-pyrrolidine-2-carboxamide]: the half-inhibitory concentration (IC50) at MMP-1 was found to be 25.6 µM; at MMP-7, 52.6 µM; on MMP-9, 0.733 µM.

Consider `CCCCCC(=O)N1C[C@H](F)C[C@H]1C(=O)N(C)[C@H](C(=O)N[C@@H](CCNC(=O)c1ccccc1)C(=O)NO)C(C)CC` (stereo partly drawn) [Example 16, (2S,4R)—N-[(1S)-1-[[(1S)-3-benzamido-1-(hydroxycarbamoyl)propyl]carbamoyl]-2-methyl-butyl]-4-fluoro-N-methyl-1-hexanoyl-pyrrolidine-2-carboxamide] (Hexanoyl-[Pro(trans-4-F)]-[NMeIle(3ξ)]-[Dab](Bz)-{NHOH}), for which the “MMP-1 IC50” value at MMP-1 is below 1 µM. Also, the figures for the IC50 on MMP-7 and on MMP-9 were 1 µM and 0.01 µM, respectively.

With `CCC(C)[C@@H](C(=O)N[C@@H](CCNC(=O)c1cc(F)cc(F)c1)C(=O)NO)N(C)C(=O)[C@@H]1CCCN1C(=O)[C@H](Cc1ccccc1)N(C)C(C)=O` (stereo partly drawn) [Example 11, (2 S)-1-[(2S)-2-[acetyl(methyl)amino]-3-phenyl-propanoyl]-N-[(1S)-1-[[(1S)-3-[(3,5-difluorobenzoyl)amino]-1-(hydroxycarbamoyl)propyl]carbamoyl]-2-methyl-butyl]-N-methyl-pyrrolidine-2-carboxamide] (Ac-[NMeF]P[NMeIle(3ξ)][Dab](Benzoyl(3,5-F2))-{NHOH}), the IC50 at MMP-1 was found to be 9.13 µM; at MMP-7 it was 20.1 µM; at MMP-9, 0.071 µM.

As to `CCCC(CCC)C(=O)N1CCC[C@H]1C(=O)N(C)[C@H](C(=O)N[C@@H](CCNC(=O)c1cc(F)cc(F)c1)C(=O)NO)C(C)CC` (stereo partly drawn) [Example 8, (2S)—N-[(1S)-1-[[(1S)-3-[(3,5-difluorobenzoyl)amino]-1-(hydroxycarbamoyl)propyl]carbamoyl]-2-methyl-butyl]-N-methyl-1-(2-propylpentanoyl)pyrrolidine-2-carboxamide], the values for the IC50 at MMP-1, on MMP-7 and on MMP-9 were 3.65 µM, 4.1 µM and 0.263 µM, respectively.
